Data published in patent US20180064807A1, “NOVEL LIPIDS AND COMPOSITIONS FOR THE DELIVERY OF THERAPEUTICS” (Arbutus Biopharma Corporation, priority 2008, published 2018).

How the values were obtained:
Factor VII [1] = test: In vivo determination of efficacy of novel lipid formulations (FVII knockdown, ED50); design: species or system C57Bl/6 mice; settings: dose resulting in a 50% reduction in plasma FVII levels compared to control animals; FVII siRNA in cationic lipid/DSPC/cholesterol/PEG-lipid 40/10/40/10; intravenous, 24 h
Method: Cationic lipid containing particles were made using the preformed vesicle method. Cationic lipid, DSPC, cholesterol and PEG-lipid were solubilised in ethanol at a molar ratio of 40/10/40/10, respectively. The lipid mixture was added to an aqueous buffer (50 mM citrate, pH 4) with mixing to a final ethanol and lipid concentration of 30% (vol/vol) and 6.1 mg/mL respectively and allowed to equilibrate at room temperature for 2 min before extrusion. The hydrated lipids were extruded through two stacked 80 nm pore-sized filters (Nuclepore) at 22° C. using a Lipex Extruder (Northern Lipids, Vancouver, BC) until a vesicle diameter of 70-90 nm, as determined by Nicomp analysis, was obtained. This generally required 1-3 passes.
The FVII siRNA (solubilised in a 50 mM citrate, pH 4 aqueous solution containing 30% ethanol) was added to the vesicles, pre-equilibrated to 35° C., at a rate of […] with mixing. After a final target siRNA/lipid ratio of 0.06 (wt/wt) was achieved, the mixture was incubated for a further 30 min at 35° C. to allow vesicle re-organization and encapsulation of the FVII siRNA. The ethanol was then removed and the external buffer replaced with PBS (155 mM NaCl, 3 mM Na2HPO4, 1 mM KH2PO4, pH 7.5) by either dialysis or tangential flow diafiltration. The final encapsulated siRNA-to-lipid ratio was determined after removal of unencapsulated siRNA using size-exclusion spin columns or ion exchange spin columns.
Test formulations were initially assessed for their FVII knockdown in female 7-9 week old, 15-25 g, female C57Bl/6 mice at 0.1, 0.3, 1.0 and 5.0 mg/kg with 3 mice per treatment group. All studies included animals receiving either phosphate-buffered saline (PBS, Control group) or a benchmark formulation. Formulations were diluted to the appropriate concentration in PBS immediately prior to testing. Mice were weighed and the appropriate dosing volumes calculated (10 μl/g body weight). Test and benchmark formulations as well as PBS (for Control animals) were administered intravenously via the lateral tail vein. Animals were anesthetised 24 h later with an intraperitoneal injection of Ketamine/Xylazine and 500-700 μl of blood was collected by cardiac puncture into serum separator tubes (BD Microtainer). Blood was centrifuged at 2,000×g for 10 min at 15° C. and serum was collected and stored at −70° C. until analysis. Serum samples were thawed at 37° C. for 30 min, diluted in PBS and aliquoted into 96-well assay plates. Factor VII levels were assessed using a chromogenic assay (Biophen FVII kit, Hyphen BioMed) according to manufacturer's instructions and absorbance measured in microplate reader equipped with a 405 nm wavelength filter. Plasma FVII levels were quantified and ED50s (dose resulting in a 50% reduction in plasma FVII levels compared to control animals) calculated using a standard curve generated from a pooled sample of serum from Control animals. Those formulations of interest showing high levels of FVII knockdown (ED50<<0.1 mg/kg) were re-tested in independent studies at a lower dose range to confirm potency and establish ED50.

[2] = Determination of pKa of formulated lipids (TNS fluorescence); format: physicochemical; settings: probe 2-(p-toluidino)-6-naphthalenesulfonic acid (TNS), 1 µM final, vesicles of cationic lipid/DSPC/CH/PEG-c-DOMG 40:10:40:10, pH 2 to 11
Method: The pKa's of the different ionisable cationic lipids were determined essentially as described (Eastman et al 1992 Biochemistry 31:4262-4268) using the fluorescent probe 2-(p-toluidino)-6-naphthalenesulfonic acid (TNS), which is non-fluorescent in water but becomes appreciably fluorescent when bound to membranes. Vesicles composed of cationic lipid/DSPC/CH/PEG-c-DOMG (40:10:40:10 mole ratio) were diluted to 0.1 mM in buffers (130 mM NaCl, 10 mM CH3COONH4, 10 mM MES, 10 mM HEPES) of various pH's, ranging from 2 to 11. An aliquot of the TNS aqueous solution (1 μM final) was added to the diluted vesicles and after a 30 second equilibration period the fluorescent of the TNS-containing solution was measured at excitation and emission wavelengths of 321 nm and 445 nm, respectively. The pKa of the cationic lipid-containing vesicles was determined by plotting the measured fluorescence against the pH of the solutions and fitting the data to a Sigmodial curve using the commercial graphing program IgorPro.

Factor VII [3] = test: In vivo evaluation of FVII siRNA 1661 using cyclic cationic lipid based formulations (FVII assay); design: species or system rodent; settings: lipid particles with FVII siRNA 1661
Method: C57BL/6 mice (Charles River Labs, MA) and Sprague-Dawley rats (Charles River Labs, MA) received either saline or siRNA in desired formulations via tail vein injection at a volume of 0.01 mL/g. At various time points post-administration, animals were anesthesized by isofluorane inhalation and blood was collected into serum separator tubes by retro orbital bleed. Serum levels of Factor VII protein were determined in samples using a chromogenic assay (Coaset Factor VII, DiaPharma Group, OH or Biophen FVII, Aniara Corporation, OH) according to manufacturer protocols. A standard curve was generated using serum collected from saline treated animals. In experiments where liver mRNA levels were assessed, at various time points post-administration, animals were sacrificed and livers were harvested and snap frozen in liquid nitrogen. Frozen liver tissue was ground into powder. Tissue lysates were prepared and liver mRNA levels of Factor VII and apoB were determined using a branched DNA assay (QuantiGene Assay, Panomics, Calif.).
The cyclic cationic lipids 506, 512 and 519-based formulations as described below were prepared, characterized and evaluated in vivo by FVII assay.

## CCCCC/C=C\C/C=C\CCCCCCCCC1(CCCCCCCC/C=C\C/C=C\CCCCC)O[C@H]2C[C@H](N(C)C)C[C@H]2O1 [ALNY-100]
Factor VII [1]
  ED50: 0.3 mg/kg
[2]
  pKa: 6.4

## CCCCC/C=C\C/C=C\CCCCCCCCC1(CCCCCCCC/C=C\C/C=C\CCCCC)O[C@H]2C[C@@H](N(C)C)C[C@H]2O1 [ALNY-101]
Factor VII [1]
  ED50: 0.1 mg/kg
[2]
  pKa: 6.43

## CCCCC/C=C\C/C=C\CCCCCCCCC1(CCCCCCCC/C=C\C/C=C\CCCCC)O[C@H]2C[C@@H](N(C)C)CC[C@H]2O1 [ALNY-102]
Factor VII [1]
  ED50: 2.0 mg/kg
[2]
  pKa: 7.3

## CCCCC/C=C\C/C=C\CCCCCCCCC1(CCCCCCCC/C=C\C/C=C\CCCCC)O[C@H]2C[C@H](N(C)C)CC[C@H]2O1 [ALNY-103]
Factor VII [1]
  ED50: 2.5 mg/kg
[2]
  pKa: 6.98

## CCCCC/C=C\C/C=C\CCCCCCCCC1(CCCCCCCC/C=C\C/C=C\CCCCC)O[C@H]2CN(C)C[C@H]2O1 [ALNY-104]
Factor VII [1]
  ED50: 2.5 mg/kg
[2]
  pKa: 5.65

## CCCCC/C=C\C/C=C\CCCCCCCCC1(CCCCCCCC/C=C\C/C=C\CCCCC)O[C@H]2CCN(C)C[C@H]2O1 [ALNY-105]
Factor VII [1]
  ED50: 1.5 mg/kg
[2]
  pKa: 5.6

## CCCCC/C=C\C/C=C\CCCCCCCCC1(CCCCCCCC/C=C\C/C=C\CCCCC)O[C@H]2CCN(C)CC[C@H]2O1 [ALNY-106]
Factor VII [1]
  ED50: 0.3 mg/kg
[2]
  pKa: 6.85

## CCCCC/C=C\C/C=C\CCCCCCCCC1(CCCCCCCC/C=C\CCCCCCCC)O[C@H]2C[C@H](N(C)C)C[C@H]2O1 (stereo partly drawn) [ALNY-107]
Factor VII [1]
  ED50: 0.25 mg/kg
[2]
  pKa: 6.63

## CCCCC/C=C\C/C=C\CCCCCCCCC1(CCCCCCCCCCCCCCCCCC)O[C@H]2C[C@H](N(C)C)C[C@H]2O1 (stereo partly drawn) [ALNY-108]
Factor VII [1]
  ED50: 0.75 mg/kg
[2]
  pKa: 6.55

## CCCCC/C=C\C/C=C\CCCCCCCCC1(CCCCCCCCCCCC)O[C@H]2C[C@H](N(C)C)C[C@H]2O1 (stereo partly drawn) [ALNY-109]
Factor VII [1]
  ED50: 2.0 mg/kg
[2]
  pKa: 6.75

## CCCCC/C=C\C/C=C\CCCCCCCCC1(CCCCCCCCCC)O[C@H]2C[C@H](N(C)C)C[C@H]2O1 (stereo partly drawn) [ALNY-110]
Factor VII [1]
  ED50: 2.0 mg/kg
[2]
  pKa: 6.5

## CCCCC/C=C\C/C=C\CCCCCCCCC1(CCCCCCCC/C=C\C/C=C\CCCCC)O[C@H]2C[C@@H](CN(C)C)C[C@H]2O1 [ALNY-115]
Factor VII [1]
  ED50: 1.0 mg/kg

## CCCCC/C=C\C/C=C\CCCCCCCCC1(CCCCCCCC/C=C\C/C=C\CCCCC)O[C@H]2C[C@H](CN(C)C)C[C@H]2O1 [ALNY-116]
Factor VII [1]
  ED50: 1.0 mg/kg

## CCCCC/C=C\C/C=C\CCCCCCCCO[C@H]1C[C@H](N(C)C)C[C@H]1OCCCCCCCC/C=C\C/C=C\CCCCC [ALNY-117]
Factor VII [1]
  ED50: >5.0 mg/kg

## CCCCC/C=C\C/C=C\CCCCCCCCC1(CCCCCCCC/C=C\C/C=C\CCCCC)O[C@H]2CC[C@@H](CN(C)C)C[C@H]2O1 [ALNY-121]
Factor VII [1]
  ED50: 0.5 mg/kg
[2]
  pKa: 6.6

## CCCCC/C=C\C/C=C\CCCCCCCCC1(CCCCCCCC/C=C\C/C=C\CCCCC)O[C@H]2CC[C@H](CN(C)C)C[C@H]2O1 [ALNY-122]
Factor VII [1]
  ED50: 0.55 mg/kg

## CCCCC/C=C\C/C=C\CCCCCCCCC1(CCCCCCCC/C=C\C/C=C\CCCCC)OCC(CCN(C)Cc2cccnc2)O1 (stereo not drawn) [ALNY-140]
Factor VII [1]
  ED50: >5.0 mg/kg
[2]
  pKa: 4.95

## CCCCC/C=C\C/C=C\CCCCCCCCC(CCCCCCCC/C=C\C/C=C\CCCCC)CN(C)CCN(C)C [ALNY-141]
Factor VII [1]
  ED50: 0.14 mg/kg
[2]
  pKa: 6.62

## CCCCC/C=C\C/C=C\CCCCCCCCC1(CCCCCCCC/C=C\C/C=C\CCCCC)O[C@H]2COC(CN(C)C)[C@H]2O1 (stereo partly drawn) [ALNY-144]
Factor VII [1]
  ED50: 0.60 mg/kg

## CCCCC/C=C\C/C=C\CCCCCCCCC1(CCCCCCCC/C=C\C/C=C\CCCCC)OCC2(CCN(C)CC2)O1 [ALNY-148]
Factor VII [1]
  ED50: 0.3 mg/kg
[2]
  pKa: 6.53

## CCCCC/C=C\C/C=C\CCCCCCCCC(CCCCCCCC/C=C\C/C=C\CCCCC)ON=C(C)CCN(C)C [ALNY-149]
Factor VII [1]
  ED50: 0.1 mg/kg
[2]
  pKa: 5.81

## CCCCC/C=C\C/C=C\CCCCCCCCC1(CCCCCCCC/C=C\C/C=C\CCCCC)O[C@H]2[C@@H](OC)OC(CN(C)C)[C@H]2O1 (stereo partly drawn) [ALNY-151]
Factor VII [1]
  ED50: >5.00 mg/kg
[2]
  pKa: 5.5

## CCCCC/C=C\C/C=C\CCCCCCCC1OC(C)(CCN(C)C)OC1CCCCCCC/C=C\C/C=C\CCCCC (stereo not drawn) [ALNY-152]
Factor VII [1]
  ED50: 0.15 mg/kg
[2]
  pKa: 6.6

## CCCCC/C=C\C/C=C\CCCCCCCC1OC2(CCN(C)CC2)OC1CCCCCCC/C=C\C/C=C\CCCCC (stereo not drawn) [ALNY-156]
[2]
  pKa: 6.08

## CCCCC/C=C\C/C=C\CCCCCCCC1OC2(CCC(N(C)C)CC2)OC1CCCCCCC/C=C\C/C=C\CCCCC (stereo not drawn) [ALNY-158]
Factor VII [1]
  ED50: 1.40 mg/kg

## CCCCC/C=C\C/C=C\CCCCCCCCC(CCCCCCCC/C=C\C/C=C\CCCCC)SSCCN(C)C [ALNY-160]
Factor VII [1]
  ED50: 2.00 mg/kg
[2]
  pKa: 5.18

## CCCCC/C=C\C/C=C\CCCCCCCCC1(CCCCCCCC/C=C\C/C=C\CCCCC)O[C@@H]2CC[C@H](N(C)C)C[C@H]2O1 [ALNY-169]
Factor VII [1]
  ED50: 2.60 mg/kg

## CCCCC/C=C\C/C=C\CCCCCCCCC(CCCCCCCC/C=C\C/C=C\CCCCC)=NNCCN(C)C [ALNY-175]
Factor VII [1]
  ED50: 2.7 mg/kg

## CCCCC/C=C\C/C=C\CCCCCCCCC(CCCCCCCC/C=C\C/C=C\CCCCC)OC(=O)NCCN(C)C [ALNY-190]
Factor VII [1]
  ED50: 0.47 mg/kg
[2]
  pKa: 6.49

## CCCCC/C=C\C/C=C\CCCCCCCCC(CCCCCCCC/C=C\C/C=C\CCCCC)NC(=O)OCCCN(C)C [ALNY-192]
Factor VII [1]
  ED50: 2.1 mg/kg
[2]
  pKa: 7.21

## CCCCC/C=C\C/C=C\CCCCCCCCC(CCCCCCCC/C=C\C/C=C\CCCCC)CNC(=O)OCCCN(C)C [ALNY-200]
Factor VII [1]
  ED50: >5.00 mg/kg
[2]
  pKa: 7.57

## CCCCC/C=C\C/C=C\CCCCCCCCC(CCCCCCCC/C=C\C/C=C\CCCCC)CNC(=O)CCN(C)C [ALNY-201, 3-(dimethylamino)-N-((11Z,14Z)-2-((9Z,12Z)-octadeca-9,12-dienyl)icosa-11,14-dienyl)propanamide]
Factor VII [1]
  ED50: >5.0 mg/kg
[2]
  pKa: 8.02

## CCCCC/C=C\C/C=C\CCCCCCCCC(CCCCCCCC/C=C\C/C=C\CCCCC)NC(=O)OCCN(C)C [ALNY-202]
Factor VII [1]
  ED50: 0.12 mg/kg
[2]
  pKa: 6.52

## CCCCC/C=C\C/C=C\CCCCCCCCC(CCCCCCCC/C=C\C/C=C\CCCCC)CNC(=O)OCCN(C)C [ALNY-203]
Factor VII [1]
  ED50: 5.0 mg/kg
[2]
  pKa: 7.07

## CCCCC/C=C\C/C=C\CCCCCCCCC1(CCCCCCCC/C=C\C/C=C\CCCCC)O[C@H]2C[C@@H](N(C)C)C[C@H]2O1 [Compound 519]
Factor VII [3]
  knockdown of FVII protein levels in vivo: almost complete knockdown
